Measurements taken from PMC4775937, “Combination Effects of Antimicrobial Peptides” (Antimicrobial Agents and Chemotherapy, 2016).
≈ marks a conversion by molar mass, not a printed value. Like-named read-outs stand apart in the source and are kept apart here. Ends that are not written are not given here.

Key:
[1] = tested on: Escherichia coli MG1655; type: cell-based
Experimental: (§1) Escherichia coli MG1655 was grown in Luria-Bertani (LB) broth at 37°C with aeration at 220 rpm in 50-ml tubes. Two hundred microliters of overnight culture was resuspended into 15 ml fresh LB broth, cultured under the same conditions for an additional 2 h, and then used for subsequent assays. Mueller-Hinton (MH) broth was used for the assay of MICs and time-killing curves.
According to a standard protocol ([35]), stock solutions of AMPs were diluted in MH broth and then diluted in 96-well plates with a 2-fold gradient, that is, from 0.25 μg/ml to 128 μg/ml. All the gradients of antibiotics were from 0.02 μg/ml to 50 μg/ml, except that the gradient of ciprofloxacin was from 0.002 μg/ml to 1 μg/ml. Approximately 5 × 10^5 log-phase bacteria were added to each well. A positive control containing MH broth and bacteria and a negative control containing only MH broth were included in each plate, and plates were incubated at 37°C overnight.

[2] = tested on: Escherichia coli MG1655; test: Killing curves fitted to the Hill function (pharmacodynamic parameters); type: cell-based; details: brackets = 95% confidence interval
Experimental: as §1
Thus, Loewe additivity would result in a MIC of any one combination equal to the MIC of the individual drugs (see equations 5 and 6). Thus, 21 two-AMP combinations and 20 three-AMP combinations were generated. An AMP(s) was diluted, starting with 100× MIC, in a 96-well plate to form a 2-fold gradient of concentrations, and 2 × 10^6 log-phase bacteria were added to a total volume of 100 μl. The plates were incubated at 37°C. Killing was assessed within 1 h, as killing by AMPs is very fast ([36], [37]). Ten microliters of a mixture of AMPs and bacteria was taken out every 20 min and then immediately diluted in saline solution and plated on the solid agar plates. These solid agar plates were transferred into a 37°C incubator and cultured overnight for CFU determination. The limit of detection in our system is 100 CFUs.
To model the killing curve, the relationship between the concentration of AMP(s) and the killing and/or growth rate of exposed bacteria, we used a Hill function ([26]): (1) μ(a)=Emax (a/EC50)^κ/1+(a/EC50)^κ Here, μ(a) is the killing rate at a given concentration of AMP(s); a is a given concentration; Emax is the maximal killing rate of the given AMP(s). κ is the Hill coefficient. We then defined growth rate ψ(a) as follows: (2) ψ(a)=ψmax −μ(a) Here, ψmax is the maximal growth rate of bacteria without AMP(s). The maximum effect of AMP(s) is defined by (3) Emax =ψmax −ψmin Thus, the effect of AMP(s) in a given concentration, μ(a), can be rewritten as (4) μ(a)=(ψmax −ψmin )(a/zMIC)^κ/(a/zMIC)^κ−ψmin /ψmax zMIC is the estimated MIC. Growth rate and killing rate of bacteria are estimated from the time-kill curves as the change of CFU over time by using generalized linear regression. […]

[3] = E. coli MG1655, MH broth, 96-well plates, 2-fold gradient 0.25 to 128 μg/ml, approx. 5 × 10^5 log-phase bacteria per well, 37°C overnight

FKRIVQRIKDFLR [LL, LL 17-29]
MIC ([1]; MG1655, 2 h): 16 µg/mL

CC[C@H](C)[C@H](N)C(=O)N[C@@H](CC(C)C)C(=O)N1CCC[C@H]1C(=O)N[C@@H](Cc1c[nH]c2ccccc12)C(=O)N[C@@H](CCCCN)C(=O)N[C@@H](Cc1c[nH]c2ccccc12)C(=O)N1CCC[C@H]1C(=O)N[C@@H](Cc1c[nH]c2ccccc12)C(=O)N[C@@H](Cc1c[nH]c2ccccc12)C(=O)N1CCC[C@H]1C(=O)N[C@@H](Cc1c[nH]c2ccccc12)C(=O)N[C@@H](CCCNC(=N)N)C(=O)N[C@@H](CCCNC(=N)N)C(N)=O [Ind, Indolicidin]
MIC [1, 3]: 4 µg/mL (≈ 2.1 µM)

GNNRPVYIPQPRPPHPRL [Api, Apidaecin IB]
MIC [1, 3]: 4 µg/mL

GIGKFLKKAKKFGKAFVKILKK-NH2 [Pex, pexiganan]
MIC [1, 3]: 2 µg/mL

KWKLFKKIEKVGQNIRDGIIKAGPAVAVVGQATQIAK-NH2 [Cec, Cecropin A]
κ (lower,upper) ([2]; Hill coefficient (steepness of pharmacodynamic curve), Hill function fit (MCMC) of time-kill data, E. coli MG1655, 37°C, within 1 h): 6.02(5.17,6.84) | zMIC (lower,upper) ([2]; estimated MIC from Hill function fit (MCMC) of time-kill data, 2-fold gradient from 100× MIC, 2 × 10^6 log-phase bacteria in 100 μl, 37°C, CFU every 20 min within 1 h, combinations 1:1 or 1:1:1 by volume): 0.32(0.28,0.37) times of original MIC | ψmin (lower,upper) ([2]; minimal growth rate of bacteria, Hill function fit (MCMC) of time-kill data, E. coli MG1655, 37°C, within 1 h): -5.83(-5.89,-5.77) | MIC [1, 3]: 1 µg/mL
